EC50 data for 6 molecules are collected here from patent publication US20240279278A1, “NMU RECEPTOR 2 AGONISTS” (Boehringer Ingelheim International GmbH, priority 2023, published 2024).

Molecules are shown by their SMILES. Residues, ends and D or L forms follow the SMILES beside them.

human NMUR2 receptor, sequence (Q9GZQ4 whole entry): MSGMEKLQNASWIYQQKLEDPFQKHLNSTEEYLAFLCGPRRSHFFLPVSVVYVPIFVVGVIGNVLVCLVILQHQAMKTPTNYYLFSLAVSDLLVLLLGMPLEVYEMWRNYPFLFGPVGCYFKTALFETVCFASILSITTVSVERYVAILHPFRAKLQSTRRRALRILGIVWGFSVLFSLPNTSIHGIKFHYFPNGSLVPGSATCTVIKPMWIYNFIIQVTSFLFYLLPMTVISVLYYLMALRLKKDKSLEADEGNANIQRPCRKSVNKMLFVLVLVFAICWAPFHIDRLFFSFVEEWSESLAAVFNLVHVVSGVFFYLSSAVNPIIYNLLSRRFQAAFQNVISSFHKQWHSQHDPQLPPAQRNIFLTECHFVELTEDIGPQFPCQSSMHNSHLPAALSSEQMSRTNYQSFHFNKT

The assay deals with human NMUR2 receptor (Homo sapiens, UniProt Q9GZQ4). The assay can be described thus: IP1 Gq HTRF assay, activation of human NMUR2 in human plasma. Format: cell-based. The conditions noted are these: CHO-K1 cells expressing human NMUR2, 100% human plasma; read-out: EC50 (hNMUR2) human plasma. On the set-up: expressed in transfected cells; host or cells: CHO-K1. The method in brief:
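EC50 obtained via 4-parameter sigmoidal regression of HTRF IP-One signal (665 nm/620 nm), which falls as intracellular IP1 rises. Stimulation: 1 h, 37° C, peptides in human plasma plus 50 mM LiCl, 1% DMSO final, on NMUR2-expressing CHO-K1 cells, 8 concentrations.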
In general terms: Time-resolved FRET reads energy transfer from a long-lived donor to a nearby acceptor.
Take `CCCC[C@H](NC(=O)[C@H](CC(C)C)N(C)C(=O)[C@H](Cc1ccccc1)NC(=O)[C@H](Cc1ccc(O)cc1)NC(=O)CN1CCN(CCNC(=O)CN(C)C(=O)CN(C)C(=O)CN(C)C(=O)CN(C)C(=O)CN(C)C(=O)CN(C)C(=O)CN(C)C(=O)CN(C)C(=O)CN(C)C(=O)CC[C@H](NC(=O)CC[C@H](NC(=O)CC[C@H](NC(=O)CCCCCCCCCCCCCCCCC(=O)O)C(=O)O)C(=O)O)C(=O)O)CC1)C(=O)N[C@@H](CCN)C(=O)N1CCC[C@H]1C(=O)N[C@@H](CCCNC(=N)N)C(=O)NCC(N)=O` [Compound 24, C18DA-gGlu3-Sar9-AEPipAc-Tyr-Phe-NMeLeu-Nle-Dbu-Pro-Arg-Gly-NH2] (HELM PEPTIDE1{[O=C(O)CCCCCCCCCCCCCCCCC(=O)[*:2]].[gGlu].[gGlu].[gGlu].[Sar].[Sar].[Sar].[Sar].[Sar].[Sar].[Sar].[Sar].[Sar].[O=C(CN1CCN(CCN[*:1])CC1)[*:2]].Y.F.[meL].[Nle].[Dab].P.R.G.[am]}$$$$V2.0): the EC50 was found to be 12.6 nM. Consider `CCCC[C@H](NC(=O)[C@H](CC(C)C)N(C)C(=O)[C@H](Cc1ccccc1)NC(=O)[C@H](Cc1ccc(O)cc1)NC(=O)CN1CCN(CCNC(=O)CN(C)C(=O)CN(C)C(=O)CN(C)C(=O)CN(C)C(=O)CN(C)C(=O)CN(C)C(=O)CN(C)C(=O)CN(C)C(=O)CN(C)C(=O)CN(C)C(=O)CN(C)C(=O)CN(C)C(=O)CC[C@H](NC(=O)CC[C@H](NC(=O)CC[C@H](NC(=O)CCCCCCCCCCCCCCCCC(=O)O)C(=O)O)C(=O)O)C(=O)O)CC1)C(=O)N[C@@H](CCCNC(=N)N)C(=O)N1CCC[C@H]1C(=O)N[C@@H](CCCNC(=N)N)C(=O)NCC(N)=O` [Compound 25, C18DA-gGlu3-Sar12-AEPipAc-Tyr-Phe-NMeLeu-Nle-Arg-Pro-Arg-Gly-NH2], for which the EC50 came out at 8.6 nM. Under `CCCC[C@H](NC(=O)[C@H](CC(C)C)N(C)C(=O)[C@H](Cc1ccccc1)NC(=O)[C@H](Cc1ccc(O)cc1)NC(=O)CN1CCN(CCNC(=O)CN(C)C(=O)CN(C)C(=O)CN(C)C(=O)CN(C)C(=O)CN(C)C(=O)CN(C)C(=O)CN(C)C(=O)CN(C)C(=O)CN(C)C(=O)CN(C)C(=O)CN(C)C(=O)CN(C)C(=O)CC[C@H](NC(=O)CC[C@H](NC(=O)CC[C@H](NC(=O)CCCCCCCCCCCCCCCCC(=O)O)C(=O)O)C(=O)O)C(=O)O)CC1)C(=O)N[C@@H](CCN)C(=O)N1CCC[C@H]1C(=O)N[C@@H](CCCNC(=N)N)C(=O)NCC(N)=O` [Compound 27, C18DA-gGlu3-Sar12-AEPipAc-Tyr-Phe-NMeLeu-Nle-Dbu-Pro-Arg-Gly-NH2] stands 6.9 nM; under `CCCC[C@H](NC(=O)[C@H](CC(C)C)N(C)C(=O)[C@H](Cc1ccccc1)NC(=O)[C@H](Cc1ccc(O)cc1)NC(=O)CN1CCN(CCNC(=O)CN(C)C(=O)CN(C)C(=O)CN(C)C(=O)CN(C)C(=O)CN(C)C(=O)CN(C)C(=O)CN(C)C(=O)CN(C)C(=O)CN(C)C(=O)CC[C@H](NC(=O)CC[C@H](NC(=O)CC[C@H](NC(=O)CCCCCCCCCCCCCCCCC(=O)O)C(=O)O)C(=O)O)C(=O)O)CC1)C(=O)N[C@@H](CCN)C(=O)N(C)[C@@H](C)C(=O)N[C@@H](CCCNC(=N)N)C(=O)NCC(N)=O` [Compound 28, C18DA-gGlu3-Sar9-AEPipAc-Tyr-Phe-NMeLeu-Nle-Dbu-NMeAla-Arg-Gly-NH2] (HELM PEPTIDE1{[O=C(O)CCCCCCCCCCCCCCCCC(=O)[*:2]].[gGlu].[gGlu].[gGlu].[Sar].[Sar].[Sar].[Sar].[Sar].[Sar].[Sar].[Sar].[Sar].[O=C(CN1CCN(CCN[*:1])CC1)[*:2]].Y.F.[meL].[Nle].[Dab].[meA].R.G.[am]}$$$$V2.0), 10.8 nM. Under `CCCC[C@H](NC(=O)[C@H](CC(C)C)N(C)C(=O)[C@H](Cc1ccccc1)NC(=O)[C@H](Cc1ccc(O)cc1)NC(=O)CN1CCN(CCNC(=O)CN(C)C(=O)CN(C)C(=O)CN(C)C(=O)CN(C)C(=O)CN(C)C(=O)CN(C)C(=O)CN(C)C(=O)CN(C)C(=O)CN(C)C(=O)CN(C)C(=O)CN(C)C(=O)CN(C)C(=O)CC[C@H](NC(=O)CC[C@H](NC(=O)CC[C@H](NC(=O)CCCCCCCCCCCCCCCCC(=O)O)C(=O)O)C(=O)O)C(=O)O)CC1)C(=O)N[C@@H](CCN)C(=O)N(C)[C@@H](C)C(=O)N[C@@H](CCCNC(=N)N)C(=O)NCC(N)=O` [Compound 38, C18DA-gGlu3-Sar12-AEPipAc-Tyr-Phe-NMeLeu-Nle-Dbu-NMeAla-Arg-Gly-NH2] stands 9.7 nM; under `CCCC[C@H](NC(=O)[C@H](CC(C)C)N(C)C(=O)[C@H](Cc1ccccc1)NC(=O)[C@H](Cc1ccc(O)cc1)NC(=O)CN1CCN(CCNC(=O)CN(C)C(=O)CN(C)C(=O)CN(C)C(=O)CN(C)C(=O)CN(C)C(=O)CN(C)C(=O)CN(C)C(=O)CN(C)C(=O)CN(C)C(=O)CC[C@H](NC(=O)CC[C@H](NC(=O)CC[C@H](NC(=O)CCCCCCCCCCCCCCCCCCC(=O)O)C(=O)O)C(=O)O)C(=O)O)CC1)C(=O)N[C@@H](CCCNC(=N)N)C(=O)N1CCC[C@H]1C(=O)N[C@@H](CCCNC(=N)N)C(=O)NCC(N)=O` [Compound 65, C20DA-gGlu3-Sar9-AEPipAc-Tyr-Phe-NMeLeu-Nle-Arg-Pro-Arg-Gly-NH2] (HELM PEPTIDE1{[O=C(O)CCCCCCCCCCCCCCCCCCC(=O)[*:2]].[gGlu].[gGlu].[gGlu].[Sar].[Sar].[Sar].[Sar].[Sar].[Sar].[Sar].[Sar].[Sar].[O=C(CN1CCN(CCN[*:1])CC1)[*:2]].Y.F.[meL].[Nle].R.P.R.G.[am]}$$$$V2.0), 11.7 nM.

In general, EC50 refers to the concentration giving half of the maximal effect.
